# Laboratory results published in patent US8772349B2, “Cannabinoid quinone derivatives” (Vivacell Biotechnology Espana, S.L., priority 2010, dated 2014).
# Legend:
# [1] = MTT cytotoxicity assay, T47D; details: human
# Protocol: (§1) All cellular lines were grown at 37° C. and 5% CO2 in supplemented Dulbecco's modified Eagle's medium (DMEM) (Cambrex Co., Barcelona, Spain), containing 10% heat-inactivated fetal bovine serum (FBS) (Cambrex Co., Barcelona, Spain), 2 mM glutamine, penicillin (50 U/ml) and streptomycin (50 mg/ml).
# (§2) Aliquots of cell suspensions were dispensed at 100 μl volumes into wells of 96-well tissue culture plates at a density of 10^4 cells/well. […] In each MTT assay, every concentration of the assayed substance was tested in three replicates. The inhibitory effect of the various compounds was calculated as percentage inhibition relative to cells treated with vehicle (0.5% DMSO).
# [2] = MTT cytotoxicity assay, HCT116; details: human
# Protocol: as §1, §2
# [3] = MTT cytotoxicity assay, 3T3-L1; details: mouse
# Protocol: All cellular lines were grown at 37° C. and 5% CO2 in supplemented Dulbecco's modified Eagle's medium (DMEM) (Cambrex Co., Barcelona, Spain), containing 10% heat-inactivated fetal bovine serum (FBS) (Cambrex Co., Barcelona, Spain), 2 mM glutamine, penicillin (50 U/ml) and streptomycin (50 mg/ml). […] MSC were maintained in α-MEM with 15% FBS.
# as §2
# [4] = MTT cytotoxicity assay, AGS; details: human
# Protocol: as §1, §2
# [5] = MTT cytotoxicity assay, HeLa; details: human
# Protocol: as §1, §2
# [6] = MTT cytotoxicity assay, MDA; details: human
# Protocol: as §1, §2
# 3T3-L1 pre-adipocytes = experiment: Glucose uptake (2-deoxy-D-glucose transport); type: cell-based, mouse; details: FIG. 6; for glucose uptake: presence and absence of insulin (1.74 μM)
# Protocol: For assays of 2-deoxy-D-glucose transport 3T3-L1 pre-adipocytes cultured in 12-well plates were deprived of serum by incubation for 2 hours. […] Glucose transport was initiated by the addition of 50 μl of KRH buffer containing 0.5 mM 2-deoxy-D-[1, 2-3H]glucose (0.25 μCi) to each well; after 5 minutes, transport was terminated by washing the cells 3 times with ice-cold KRH buffer. The cells were solubilized, and the incorporated radioactivity was measured by liquid scintillation counting.
# Data are given as means with deviation standard error bars of three replicates. […]
# [7] = test system: adipokines gene expression (IL-6, AdipoQ); experiment: Adipocyte and adipokine gene expression by PCR in 3T3-L1 adipocytes; details: FIG. 5
# Protocol: 3T3-L1 fibroblasts were grown until confluence (3 days) in DMEM with 10% FBS and antibiotics. Then (day 0), medium was supplemented with 1 μM dexamethasone, IBMX 0.5 mM and 10 μg/ml insulin, to induce differentiation for 2 days. In day 2, the medium was supplemented only with 5 μg/ml insulin for two more days. All mediums used were additionally supplemented with cannabinoids, or rosiglitazone (1 μM) as control, since day 0. In case of RNA extractions, cells were harvested on day 4. […] GAPDH gene was used as houskeeping gene.
# [8] = test system: T47D, human breast adenocarcinoma; experiment: MTT cytotoxicity assay, T47D; details: read-out: IC50 values of MTT cytotoxicity assay; T47D, 24 hours of treatment
# Protocol: as §1, §2
# 3T3-L1 fibroblasts = experiment: 3T3-L1 adipocyte differentiation assay / total triglyceride quantification
# Protocol: The 3T3-L1 preadipocyte cell line was plated at a concentration of 2×10^5 cell/well in 6-well plates for RNA isolations and tygliceride cunatification. 3T3-L1 fibroblasts were grown until confluence (3 days) in DMEM with 10% FBS and antibiotics. Then (day 0), medium was supplemented with 1 μM dexamethasone, IBMX 0.5 mM and 10 μg/ml insulin, to induce differentiation for 2 days. In day 2, the medium was supplemented only with 5 μg/ml insulin for two more days. All mediums used were additionally supplemented with cannabinoids, or rosiglitazone (1 μM) as control, since day 0. […] For trygliceride cuantification, cells were maintained in medium supplemented with cannabinoids until day 12 and refreshed every two days. […] 3T3-L1 fully differentiated adipocytes were washed in PBS and sonicated three times for 5 seconds in a buffer containing 2 M NaCl, 2 mM EDTA and 50 mM sodium phosphate pH 7.4 to release cellular content. Total triglyceride content released was quantified using a commercial Triglyceride Assay kit (Applied BioSystem, Spain) based on a colorimetric reaction and measured by absorbance at 500 nm in a spectrophotometer.
# [9] = test system: bone-marrow derived mesenchimal cells; experiment: Mesenchymal stem cell differentiation to osteoblasts or adipocytes, marker gene expression by QRT-PCR; type: cell-based; details: human MSC, compounds in differentiation medium, FIG. 7
# Protocol: Cells were plated at 500 cell/cm^2 on P6 plates (TPP, Trasadingen, Switzerland) containing α-MEM medium with 10% FBS. When the cell cultures were 80-90% confluent, the medium was supplemented with 10^−8 M dexamethasone, 0.2 mM ascorbic acid and 10 mM β-glycerolphosphate to induce differentiation to osteoblasts, and 5×10^−7 M dexamethasone, 0.5 mM isobutylmethylxanthine and […] indometacin to induce differentiation to adipocytes. All inducers were from Sigma-Aldrich. MSC (mesenchymal stem cells) were grown in an osteogenic or adipogenic medium for 21 days, together with a corresponding control (in the absence of differentiation inducers). Cell samples were collected at day 13. […] Expression values of nuclear ribosomal DNA were used to normalise the obtained values. Adipocyte and osteoblasts were obtained by differentiation of human mesenchymal stem cells grown in adipogenic or osteoblastogenic specific differentiation culture mediums. […] Bone forming osteoblasts and fat forming adipocytes are both derived from mesenchymal stem cells (MSCs). An increase in PPARg activity due to treatment with the antidiabetic thiazolidinedione (TZD) drug rosiglitazone results in a decreased number of osteoblasts and an increased number of adipocytes.
# [10] = T47D cells (human breast adenocarcinoma)
# [11] = HCT116 cells (human colon carcinoma)
# [12] = 3T3-L1 cells (mouse embryonic fibroblast, adipose-like)
# [13] = AGS cells (human gastric adenocarcinoma)
# [14] = HeLa cells (human cervical carcinoma)
# [15] = MDA cells (human breast cancer)
SMILES,"IC50 at 24 h [1, 10]","IC50 at 24 h [2, 11]","IC50 at 24 h [3, 12]","IC50 at 24 h [4, 13]","IC50 at 24 h [5, 14]","IC50 at 24 h [6, 15]",glucose uptake (3T3-L1 pre-adipocytes),AdipoQ gene expression [7],IL-6 gene expression [7],IC50 at 24 h [2],IC50 at 24 h [3],IC50 at 24 h [4],IC50 at 24 h [5],IC50 at 24 h [6],other results
"C=C(C)[C@@H]1CCC(C)=C[C@H]1c1c(O)cc(CCCCC)cc1O [CBD, cannabidiol]",35 µM,> 50 µM,30 µM,25 µM,> 50 µM,> 50 µM,,,,,,,,,
"CCCCCc1cc(O)c(C/C=C(\C)CCC=C(C)C)c(O)c1 [CBG, cannabigerol]",47 µM,> 50 µM,42.2 µM,> 50 µM,> 50 µM,> 50 µM,able to increment the glucosa uptake both in presence and absence of insulin,increment on AdipoQ,reduction of the pro-inflammatory cytokine IL-6,,,,,,
"C=C(C)C1CCC(C)=C[C@H]1C1=C(O)C(=O)C(CCCCC)=CC1=O (some centres unmarked) [CBD-Q, CBD-Quinone]",,,,,,,,,,9.8 µM,12 µM,7.44 µM,40.5 µM,10.1 µM,"IC50 at 24 h ([1]; IC50 values of MTT cytotoxicity assay, T47D, 24 hours of treatment): 20 µM; IC50 [8]: 17.1 µM; cytotoxic effect in adipocyte differentiation assay, concentration (3T3-L1 fibroblasts; 3T3-L1, FIG. 8C, lacking bar): higher than 1 μM"
"CCCCCC1=CC(=O)C(C/C=C(\C)CCC=C(C)C)=C(O)C1=O [CBG-Q, CBG Hydroxyquinone]",,,,,,,able to increment the glucosa uptake both in presence and absence of insulin,increment on AdipoQ,reduction of the pro-inflammatory cytokine IL-6,47 µM,49 µM,48 µM,> 50 µM,49 µM,"IC50 at 24 h [1]: 44 µM; glucose uptake compared with CBG (3T3-L1 pre-adipocytes; absence of insulin): higher effect than CBG; expression of marker genes in adipocytes and osteoblasts [9]: no significant alteration in expression of marker genes; differentiation of fibroblasts to adipocytes (total triglyceride), in words (3T3-L1 fibroblasts; 3T3-L1, FIGS. 4 and 8C): stimulate the differentiation of fibroblasts to adipocytes in a stronger way than CBG"
